Reference: US20100210722A1, “COMPOSITION FOR PREVENTING OR TREATING LIPID METABOLIC DISORDERS COMPRISING FUCOXANTHIN OR MARINE PLANT EXTRACT CONTAINING SAME” (AMICOGEN, INC., priority 2007, published 2010)
Marks after values point to notes of the source that are not given here.

Assays:
Type in all cases: in vivo, C57BL/6N/CriBgi mice
G6PD mRNA = assay: Expression of mRNA for G6PD in adipose tissue (real-time PCR); conditions: normal diet = 1.00, GAPDH internal marker
Description: (§1) Test diets were as follows: “normal diet group”=AIN-76 semisynthetic diet of Teklad (Madison, Wl, USA); “high fat diet group”=normal diet+10% of corn oil and 10% of lard; “test group I”=high fat diet+fucoxanthin extract of Example 1 (fucoxanthin content=0.05%); “test group II”=high fat diet+fucoxanthin extract of Example 1 (fucoxanthin content=0.2%); “test group III”=high fat diet+fucoxanthin extract of Example 2 (fucoxanthin content=0.05%); “test group IV”=high fat diet+fucoxanthin extract of Example 2 (fucoxanthin content=0.2%). The 6 diets (normal diet, high fat diet, and test I, II, III and IV) were given to the animals for 6 weeks. Diet intake was recorded every day, and body weight was measured once a week.
(§2) 5 mL of Trizol was added to 0.5 g of white adipose tissue. After pulverizing in liquid nitrogen using a mortar, the tissue was added to 1 mL of chloroform. […] The isolated RNA was diluted and absorbance was measured at 260 nm using a UV spectrometer. […]
(§3) Thus prepared cDNA was […] 10-fold, and primers for analyzing the expression of the respective genes (CPT, β-oxidation, FAS, ME and G6PD) were obtained from Genotech (Daejeon, Korea). […] Fluorescence signals were monitored for each cycle and threshold cycle (Cr) was analyzed for quantitative analysis of mRNA for the test groups (Applied Biosystems, SDS7000) (Livak, 2001). […]

[1] = Amount of feces and cholesterol content in feces; conditions: high fat diet, 6 weeks
Procedure: Seventy (70) 4-week-old male C57BL/6N/CriBgi mice weighing 14 g were purchased from Orient, and reared in separate cages maintained at 24° C. and relative humidity of 55%, providing light from 08:00 until 20:00. The mice were accustomed while providing a pellet type diet for a week. The mice, which weighed 18.5-18.7 g, were grouped into seven groups by the randomized block design. Each group was given a different diet, as follows.
as §1
Feces were taken from the mice fed with the test diets for 6 weeks of Reference Example 1. The amount of feces and cholesterol content in the feces were measured.

[2] = test system: phosphatidate phosphohydrolase (PAP); assay: PAP activity in liver tissue; conditions: high fat diet, 6 weeks
Description: as §1

FAS mRNA = assay: Expression of mRNA for FAS in adipose tissue (real-time PCR); conditions: normal diet = 1.00, GAPDH internal marker
Description: as §1, §2, §3

[3] = test system: carnitine palmitoyltransferase (CPT); assay: CPT activity (mitochondrial fraction); conditions: high fat diet, 6 weeks
Description: as §1
CPT is an enzyme involved in the oxidation of fatty acid and may be used as an index for the degree of oxidation of fatty acid. CPT activity was calculated from the measurement of CoASH produced from palmitoyl-CoA using 5,5-dithiobis-(2-nitrobenzoic acid) (DTNB). Specifically, 50 μL of mitochondrial fraction was added to a reaction solution containing 116 mM Tris-HCl (pH 8.0), 1.1 mM EDTA, 2.50 mM 1-carnitine, 0.5 mM DTNB, […] palmitoyl-CoA and 0.2% Triton X-100 to initiate reaction. Then, change of absorbance was measured at 25° C. and 412 nm for 2 minutes.

[4] = fucoxanthin content 0.05% (Test I/III)
[5] = fucoxanthin content 0.2% (Test II/IV)

## CC(=O)O[C@H]1CC(C)(C)C(=C=C/C(C)=C/C=C/C(C)=C/C=C/C=C(C)/C=C/C=C(\C)C(=O)C[C@@]23O[C@]2(C)C[C@@H](O)CC3(C)C)[C@](C)(O)C1 [highly pure fucoxanthin, Fucoxanthin]
G6PD mRNA; [4]
  Expression of mRNA, G6PD: 1.10 ± 0.15^abc
G6PD mRNA; [5]
  Expression of mRNA, G6PD: 0.67 ± 0.04^a
[1]; [4]
  Amount of feces: 0.226 ± 0.01^c g/day
  Cholesterol content in feces: 237.88 ± 10.39^c umol/g
[1]; [5]
  Amount of feces: 0.209 ± 0.01^bc g/day
  Cholesterol content in feces: 508.79 ± 13.25^c umol/g
[2]; [4]
  PAP activity: 21.62 ± 1.54^a mmol/min/mg protein
[2]; [5]
  PAP activity: 26.14 ± 1.03^ab mmol/min/mg protein
FAS mRNA; [4]
  Expression of mRNA, FAS: 0.51 ± 0.03^abc
FAS mRNA; [5]
  Expression of mRNA, FAS: 0.28 ± 0.05^a
[3]; [4]
  CPT activity: 13.36 ± 1.66^ab mmol/min/mg protein
[3]; [5]
  CPT activity: 40.30 ± 12.10^c mmol/min/mg protein
